Experimental data: patent publication US10954214B2 (Janssen Pharmaceutica NV, priority 2016, dated 2021)

What was measured:
[1] = target: full-length MALT1 protein (Strep-MALT1(1-824)-His) (Homo sapiens (Human), UniProt Q9UDY8); assay: MALT1 Biochemical Protease Assay (Ac-LRSR-AMC substrate); conditions: 10 nM FL MALT1, 200 μM Ac-LRSR-AMC, 4 h at RT; read-out: MALT1_Biochemical activity (Ac-LRSR-amc) IC50
Procedure: The tetrapeptide LRSR is coupled to AMC (7-amino-4-methylcoumarin) and provides a quenched, fluorescent substrate for the MALT1 protease (SM Biochemicals). […] Test compound concentrations ranged from 30 μM to 0.5 nM using 11 dilution steps (1:3). Background signal was measured from control wells containing assay buffer without enzyme which functions as low control (LC). High control (HC) values were generated using the reaction with enzyme but no compound treatment. Compounds were pre-incubated with MALT1 enzyme for 50 minutes at RT. […] The reaction was subsequently incubated for 4 h at RT and fluorescence was measured.
LC=Median of the low control values
An estimate of the slope of the plot in terms of the Hill coefficient was also obtained. IC50 Calculation:
[formula] With • UB=upper bound • LB=lower bound Used in “Lexis Dose Response Curve Fitting” Version 1.0.

[2] = system: IL6 secretion by TMD8 ABC-DLBCL cells; assay: Human IL6 Mesoscale assay (TMD-8); assay type: cell-based; conditions: Homo sapiens, TMD8; TMD-8 cells, 24 h
Procedure: (§1) NFKB signaling regulates the secretion of multiple cytokines, including IL6 and IL10. Secretion of the cytokines IL6 and IL10 by TMD8 or OCI-LY3 ABC-DLBCL cells was measured using a mesoscale assay. Inhibition of NFKB signaling by MALT1 or BTK inhibitors results in a decrease of IL6/10 secretion.
(§2) TMD8 or OCI-LY3 cells were propagated in RPMI-1640 (Sigma Aldrich) supplemented with 10% fetal bovine serum (HyClone), 1 mM sodium pyruvate (Invitrogen), 2 mM L-glutamine (Sigma Aldrich) and 1% PenStrep (Sigma Aldrich). Cell passage number should not exceed 30. Cells should be kept between 0.5-2.5 million cells per mL during culturing and cells should be supplemented every 2-3 days with fresh 50 μM beta-mercaptoenthanol. No beta-mercaptoethanol was used during the mesoscale assay.
(§3) For the Mesoscale assay, 100,000 TMD8 or OCI-LY3 cells were seeded per well into black-colored 96-well plates with clear bottom (Corning #3904) and test compounds were added in 9 dilution steps (1:2) ranging from 15 μM to 58.6 nM (final DMSO concentration 0.3%). DMSO control wells were used to determine the maximum signal (High Control (HC)). Treatment with the BTK inhibitor RN486 in a dose range from 30 nM to 131 pM (9 dilutions of 1:2) served as a positive control for NFKB pathway inhibition and was used to determine the maximum inhibition (Low Control (LC)). Compounds and cells were incubated for 24 h at 37° C. and 5% CO2 (assay volume is 150 μL). After 24 h of incubation 50 μL of the supernatant was transferred to a MSD plate (V-Plex Proinflammation Panel 1 (human) kit, Mesoscale (MSD)) and incubated for 2 h with vigorous shaking (600 rpm) at room temperature. Following incubation, plates were washed 3× with PBS+0.05% Tween-20 and 25 μL detection antibody solution (IL6 & IL10 antibodies in diluent 3 (MSD)) was added per well followed by 2 h of incubation with vigorous shaking (600 rpm) at room temperature. After 3× washes with PBS+0.05% Tween-20, plates were incubated with 150 μL 2× Read Buffer T and read on SECTOR imager.

[3] = system: IL10 secretion by TMD8 ABC-DLBCL cells; assay: Human IL10 Mesoscale assay (TMD-8); assay type: cell-based; conditions: Homo sapiens, TMD8; TMD-8 cells, 24 h
Procedure: as §1, §2, §3

Sequence of full-length MALT1 protein (Strep-MALT1(1-824)-His) (Q9UDY8 whole entry): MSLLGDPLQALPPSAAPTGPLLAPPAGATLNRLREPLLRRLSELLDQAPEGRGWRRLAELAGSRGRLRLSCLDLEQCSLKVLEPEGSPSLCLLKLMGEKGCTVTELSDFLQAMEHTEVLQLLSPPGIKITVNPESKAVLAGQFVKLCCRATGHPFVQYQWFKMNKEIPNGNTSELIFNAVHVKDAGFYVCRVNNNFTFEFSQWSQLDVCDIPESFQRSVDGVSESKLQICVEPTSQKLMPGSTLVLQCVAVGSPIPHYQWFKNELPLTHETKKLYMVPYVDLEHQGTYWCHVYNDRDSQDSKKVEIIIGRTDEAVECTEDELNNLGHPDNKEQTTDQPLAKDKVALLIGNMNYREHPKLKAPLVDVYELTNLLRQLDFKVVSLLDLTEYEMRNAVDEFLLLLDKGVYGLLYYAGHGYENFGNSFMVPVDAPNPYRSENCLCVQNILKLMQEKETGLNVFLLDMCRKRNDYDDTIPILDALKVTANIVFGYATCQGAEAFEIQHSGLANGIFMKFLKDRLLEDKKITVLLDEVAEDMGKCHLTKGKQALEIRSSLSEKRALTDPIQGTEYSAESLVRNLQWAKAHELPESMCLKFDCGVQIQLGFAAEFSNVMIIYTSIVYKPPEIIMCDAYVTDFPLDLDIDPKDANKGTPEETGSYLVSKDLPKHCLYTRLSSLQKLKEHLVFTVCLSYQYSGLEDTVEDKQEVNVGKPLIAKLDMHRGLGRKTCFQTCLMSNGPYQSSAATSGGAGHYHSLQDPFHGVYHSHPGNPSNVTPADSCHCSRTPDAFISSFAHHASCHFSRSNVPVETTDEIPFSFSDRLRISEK

| Compound | IC50 [1] | IC50 [2] | IC50 [3] |
| --- | --- | --- | --- |
| Cc1cc(-n2nccn2)c(Cl)cc1NC(=O)c1cnn(-c2cccc3c(=O)[nH]ccc23)c1C(F)(F)F [Cpd 171, N-(5-chloro-2-methyl-4-(2H-1,2,3-triazol-2-yl)phenyl)-1-(1-oxo-1,2-dihydroisoquinolin-5-yl)-5-(trifluoromethyl)-1H-pyrazole-4-carboxamide] | 71 nM | 91 nM | 60 nM |
| O=C(Nc1cnc2[nH]ncc2c1)c1cnn(-c2cccc3ncccc23)c1C(F)(F)F [Cpd 229, N-(1H-pyrazolo[3,4-b]pyridin-5-yl)-1-(quinolin-5-yl)-5-(trifluoromethyl)-1H-pyrazole-4-carboxamide] | 1120 nM | 912 nM | 331 nM |
| N#Cc1cc(NC(=O)c2cnn(-c3cnnc4ccccc34)c2C(F)(F)F)cnc1-n1nccn1 [Cpd 93, 1-(Cinnolin-4-yl)-N-(5-cyano-6-(2H-1,2,3-triazol-2-yl)pyridin-3-yl)-5-(trifluoromethyl)-1H-pyrazole-4-carboxamide] | 60 nM | 447 nM | 501 nM |
| O=C(Nc1cnc(-c2ncco2)c(Cl)c1)c1cnn(-c2cccc3ncccc23)c1C(F)(F)F [Cpd 91, N-(5-chloro-6-(oxazol-2-yl)pyridin-3-yl)-1-(quinolin-5-yl)-5-(trifluoromethyl)-1H-pyrazole-4-carboxamide] | 15 nM | 151 nM | 155 nM |
| N#Cc1cc(NC(=O)c2cnn(-c3cccc4nc(N)nn34)c2C(F)(F)F)cnc1-n1nccn1 [Cpd 159, 1-(2-amino-[1,2,4]triazolo[1,5-a]pyridin-5-yl)-N-(5-cyano-6-(2H-1,2,3-triazol-2-yl)pyridin-3-yl)-5-(trifluoromethyl)-1H-pyrazole-4-carboxamide] | 105 nM | > 15100 nM | 955 nM |
| N#Cc1cc(NC(=O)c2cnn(-c3cccn4ccnc34)c2C(F)(F)F)cnc1-n1nccn1 [Cpd 230, N-(5-cyano-6-(2H-1,2,3-triazol-2-yl)pyridin-3-yl)-1-(imidazo[1,2-a]pyridin-8-yl)-5-(trifluoromethyl)-1H-pyrazole-4-carboxamide] | 1070 nM | 1410 nM | 759 nM |
| N#Cc1cc(NC(=O)c2cnn(-c3cccc4nccnc34)c2C(F)(F)F)cnc1-n1nccn1 [Cpd 105, N-(5-Cyano-6-(2H-1,2,3-triazol-2-yl)pyridin-3-yl)-1-(quinoxalin-5-yl)-5-(trifluoromethyl)-1H-pyrazole-4-carboxamid] | 58 nM | 851 nM | 813 nM |
| Cc1nc(-n2nccn2)c(Br)cc1NC(=O)c1cnn(-c2cccc3c(=O)[nH]ccc23)c1C(F)(F)F [Cpd 185, N-(5-bromo-2-methyl-6-(2H-1,2,3-triazol-2-yl)pyridin-3-yl)-1-(1-oxo-1,2-dihydroisoquinolin-5-yl)-5-(trifluoromethyl)-1H-pyrazole-4-carboxamide] | 18 nM | 186 nM | 162 nM |
| N#Cc1cc(NC(=O)c2cnn(-c3nccn4ccnc34)c2C(F)(F)F)cnc1-n1nccn1 [Cpd 103, N-(5-Cyano-6-(2H-1,2,3-triazol-2-yl)pyridin-3-yl)-1-(imidazo[1,2-a]pyrazin-8-yl)-5-(trifluoromethyl)-1H-pyrazole-4-carboxamide] | 1510 nM | > 15000 nM | > 15000 nM |
| O=C(Nc1ccnc(C(F)(F)F)c1)c1cnn(-c2cccc3c(=O)[nH]ccc23)c1C(F)(F)F [Cpd 158, 1-(1-oxo-1,2-dihydroisoquinolin-5-yl)-5-(trifluoromethyl)-N-(2-(trifluoromethyl)pyridin-4-yl)-1H-pyrazole-4-carboxamide] | – | > 1510 nM | 380 nM |

More lines, now with the values ahead:

| IC50 [1] | IC50 [2] | IC50 [3] | Compound |
| --- | --- | --- | --- |
| 2000 nM | 126 nM | 54 nM | NC(=O)c1ccc2c(-n3ncc(C(=O)Nc4cnc(-n5nccn5)c(Cl)c4)c3C(F)(F)F)cccc2n1 [Cpd 388, 5-(4-((5-chloro-6-(2H-1,2,3-triazol-2-yl)pyridin-3-yl)carbamoyl)-5-(trifluoromethyl)-1H-pyrazol-1-yl)quinoline-2-carboxamide] |
| 4900 nM | 21 nM | 43 nM | O=C(Nc1cnc(-n2nccn2)c(Cl)c1)c1cnn(-c2cccc3nc(C4CCN4)ccc23)c1C(F)(F)F (centres unmarked) [Cpd 381, 1-(2-(azetidin-2-yl)quinolin-5-yl)-N-(5-chloro-6-(2H-1,2,3-triazol-2-yl)pyridin-3-yl)-5-(trifluoromethyl)-1H-pyrazole-4-carboxamide] |
| 347 nM | > 1510 nM | 1780 nM | Cc1nc2cccc(-n3ncc(C(=O)Nc4cnc(-n5nccn5)c(C#N)c4)c3C(F)(F)F)c2s1 [Cpd 247, N-(5-cyano-6-(2H-1,2,3-triazol-2-yl)pyridin-3-yl)-1-(2-methylbenzo[d]thiazol-7-yl)-5-(trifluoromethyl)-1H-pyrazole-4-carboxamide] |
| 13 nM | 91 nM | 60 nM | Cc1nc(-n2nccn2)c(Cl)cc1NC(=O)c1cnn(-c2cnc(Cl)c3sccc23)c1C(F)(F)F [Cpd 426, N-(5-chloro-2-methyl-6-(2H-1,2,3-triazol-2-yl)pyridin-3-yl)-1-(7-chlorothieno[2,3-c]pyridin-4-yl)-5-(trifluoromethyl)-1H-pyrazole-4-carboxamide] |
| 178 nM | 4270 nM | 1000 nM | O=C1CO[C@H](c2ncc(-n3ncc(C(=O)Nc4cnc(-n5nccn5)c(Cl)c4)c3C(F)(F)F)c3ccccc23)C1 (single isomer, unassigned) [Cpd 439, (*S)—N-(5-chloro-6-(2H-1,2,3-triazol-2-yl)pyridin-3-yl)-1-(1-(4-oxotetrahydrofuran-2-yl)isoquinolin-4-yl)-5-(trifluoromethyl)-1H-pyrazole-4-carboxamide] |
| 62 nM | > 15100 nM | 7940 nM | Cc1cc(NC(=O)c2cnn(-c3cccc4ncccc34)c2C(F)(F)F)cnc1-c1nnn(C)n1 [Cpd 305, N-(5-methyl-6-(2-methyl-2H-tetrazol-5-yl)pyridin-3-yl)-1-(quinolin-5-yl)-5-(trifluoromethyl)-1H-pyrazole-4-carboxamide] |
| 186 nM | 58 nM | 46 nM | NC(=O)c1nccc2c(-n3ncc(C(=O)Nc4cnc(-n5nccn5)c(Cl)c4)c3C(F)(F)F)cccc12 [Cpd 389, 5-(4-((5-chloro-6-(2H-1,2,3-triazol-2-yl)pyridin-3-yl)carbamoyl)-5-(trifluoromethyl)-1H-pyrazol-1-yl)isoquinoline-1-carboxamide] |
| 661 nM | 324 nM | 562 nM | Cn1ncc2c(-n3ncc(C(=O)Nc4cnc(-n5nccn5)c(C#N)c4)c3C(F)(F)F)cccc21 [Cpd 239, N-(5-cyano-6-(2H-1,2,3-triazol-2-yl)pyridin-3-yl)-1-(1-methyl-1H-indazol-4-yl)-5-(trifluoromethyl)-1H-pyrazole-4-carboxamide] |
| 13 nM | > 3020 nM | 204 nM | O=C(Nc1cnc(-n2nccn2)c(Cl)c1)c1cnn(-c2cnc(N3CC(O)C3)c3sccc23)c1C(F)(F)F [Cpd 430, N-(5-chloro-6-(2H-1,2,3-triazol-2-yl)pyridin-3-yl)-1-(7-(3-hydroxyazetidin-1-yl)thieno[2,3-c]pyridin-4-yl)-5-(trifluoromethyl)-1H-pyrazole-4-carboxamide] |
| 234 nM | > 3200 nM | 646 nM | Cn1ncc(-c2ncc(NC(=O)c3cnn(-c4cccc5ncccc45)c3C(F)(F)F)cc2C#N)n1 [Cpd 257, N-(5-cyano-6-(2-methyl-2H-1,2,3-triazol-4-yl)pyridin-3-yl)-1-(quinolin-5-yl)-5-(trifluoromethyl)-1H-pyrazole-4-carboxamide] |
